Measurements reported in article PMC9386376, “Discovery of spirooxindole-derived small-molecule compounds as novel HDAC/MDM2 dual inhibitors and investigation of their anticancer activity” (Frontiers in Oncology, 2022).

Experiments:
[1] = target: T1, GST-tagged MDM2 (Homo sapiens, UniProt Q00987); assay: HTRF enzyme inhibition assay, MDM2; type: biochemical; details: compound at 1 μM
T1 construct: purchased Cisbio Co. Ltd
Protocol: The enzymatic assay of test compounds is using the HTRF-based method provided by Cisbio Co. Ltd. In brief, the target compounds to be tested were prepared into samples with a concentration of 1 μM, which was added to GST-tagged MDM2 and HDAC1 proteins, respectively, then biotinylated substrate p53 peptide and HTRF detection reagents were added. The data obtained were processed by the ratio method, and the inhibition rates of MDM2 and HDAC1 were calculated. The detailed experimental procedures are according to the manufacturer’s protocols.

[2] = target: HDAC1 (Homo sapiens, UniProt Q13547); assay: HTRF enzyme inhibition assay, HDAC1; details: for inhibition at 1 µM: read-out: % enzyme inhibition HDAC; for % enzyme inhibition HDAC: compound at 1 μM, HTRF, method names HDAC1 protein
Sequence of HDAC1 (Q13547 whole entry): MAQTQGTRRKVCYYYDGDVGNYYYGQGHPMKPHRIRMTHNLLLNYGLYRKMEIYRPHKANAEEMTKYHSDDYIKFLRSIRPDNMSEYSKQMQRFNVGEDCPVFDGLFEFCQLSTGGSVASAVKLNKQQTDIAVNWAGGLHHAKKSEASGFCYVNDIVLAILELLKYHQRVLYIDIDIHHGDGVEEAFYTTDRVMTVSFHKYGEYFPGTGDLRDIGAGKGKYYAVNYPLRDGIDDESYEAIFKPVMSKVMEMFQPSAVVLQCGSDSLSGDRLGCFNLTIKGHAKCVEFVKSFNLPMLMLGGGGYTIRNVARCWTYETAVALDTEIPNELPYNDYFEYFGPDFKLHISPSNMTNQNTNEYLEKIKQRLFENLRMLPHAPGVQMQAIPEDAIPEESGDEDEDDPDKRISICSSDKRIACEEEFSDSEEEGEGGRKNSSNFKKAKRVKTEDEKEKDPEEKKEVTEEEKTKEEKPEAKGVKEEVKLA

T1 sequence (Q00987 whole entry): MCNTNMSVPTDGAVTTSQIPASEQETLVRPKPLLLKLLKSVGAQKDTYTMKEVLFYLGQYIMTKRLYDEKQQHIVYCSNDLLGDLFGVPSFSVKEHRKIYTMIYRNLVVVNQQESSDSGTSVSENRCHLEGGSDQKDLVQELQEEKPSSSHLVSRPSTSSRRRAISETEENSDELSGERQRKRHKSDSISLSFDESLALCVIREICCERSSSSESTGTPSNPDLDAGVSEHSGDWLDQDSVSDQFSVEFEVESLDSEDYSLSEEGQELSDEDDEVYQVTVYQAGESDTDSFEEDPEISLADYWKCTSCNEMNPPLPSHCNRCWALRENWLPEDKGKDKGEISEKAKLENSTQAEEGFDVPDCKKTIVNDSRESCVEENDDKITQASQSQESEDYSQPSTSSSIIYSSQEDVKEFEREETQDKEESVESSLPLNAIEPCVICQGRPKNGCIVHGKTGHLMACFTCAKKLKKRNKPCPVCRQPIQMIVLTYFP

Compound | inhibition at 1 µM [1] [%] | inhibition at 1 µM [2] [%] | melting point [°C] | % enzyme inhibition MDM2 [1] [%] | % enzyme inhibition HDAC [2] [%]
COc1ccc2c(c1)NC(=O)[C@@]21[C@@H](C(=O)c2ccccc2)[C@H](c2ccc(NC(=O)CCCCCCC(=O)NO)cc2)[C@H]2CSCN21 [7k, N^1-(4-((3R,6'S,7'R,7a'S)-6'-benzoyl-6-methoxy-2-oxo-1',6',7',7a'-tetrahydro-3'H-spiro[indoline-3,5'-pyrrolo[1,2-c]thiazol]-7'-yl)phenyl)-N^8-hydroxyoctanediamide] | 54 | 70 |  |  | 
O=C(CCCCCCC(=O)Nc1ccc([C@@H]2[C@H]3CSCN3[C@]3(C(=O)Nc4ccc(Br)cc43)[C@H]2C(=O)c2ccccc2)cc1)NO [7e, N^1-(4-((3R,6'S,7'R,7a'S)-6'-benzoyl-5-bromo-2-oxo-1',6',7',7a'-tetrahydro-3'H-spiro[indoline-3,5'-pyrrolo[1,2-c]thiazol]-7'-yl)phenyl)-N^8-hydroxyoctanediamide] | 48 | 72 | 146.8 to 148 |  | 
N^1-(4-((3R,6'S,7'R,7a'S)-6-chloro-2-oxo-6'-(thiophene-2-carbonyl)-1',6',7',7a'-tetrahydro-3'H-spiro[indoline-3,5'-pyrrolo[1,2-c]thiazol]-7'-yl)phenyl)-N^6-hydroxyadipamide [15c] |  |  |  | 49 | 70
O=C(CCCCC(=O)Nc1ccc([C@@H]2[C@H]3CSCN3[C@]3(C(=O)Nc4cc(Cl)ccc43)[C@H]2C(=O)c2ccccc2)cc1)NO [7r, N^1-(4-((3R,6'S,7'R,7a'S)-6'-benzoyl-6-chloro-2-oxo-1',6',7',7a'-tetrahydro-3'H-spiro[indoline-3,5'-pyrrolo[1,2-c]thiazol]-7'-yl)phenyl)-N^6-hydroxyadipamide] | 61 | 55 | 160.6 to 161.9 |  | 
Cc1cccc2c1NC(=O)[C@@]21[C@@H](C(=O)c2ccccc2)[C@H](c2ccc(NC(=O)CCCCCCC(=O)NO)cc2)[C@H]2CSCN21 [7h, N^1-(4-((3R,6'S,7'R,7a'S)-6'-benzoyl-7-methyl-2-oxo-1',6',7',7a'-tetrahydro-3'H-spiro[indoline-3,5'-pyrrolo[1,2-c]thiazol]-7'-yl)phenyl)-N^8-hydroxyoctanediamide] | 23 | 71 | 142.7 to 143.9 |  | 
O=C(CCCCCCC(=O)Nc1ccc([C@@H]2[C@H]3CSCN3[C@]3(C(=O)Nc4ccc(F)cc43)[C@H]2C(=O)c2ccccc2)cc1)NO [7c, N^1-(4-((3R,6'S,7'R,7a'S)-6'-benzoyl-5-fluoro-2-oxo-1',6',7',7a'-tetrahydro-3'H-spiro[indoline-3,5'-pyrrolo[1,2-c]thiazol]-7'-yl)phenyl)-N^8-hydroxyoctanediamide] | 51 | 68 | 144.3 to 145.7 |  | 
CN1C[C@@H](c2ccc(NC(=O)CCCCCCC(=O)NO)cc2)[C@H](C(=O)c2ccccc2)[C@@]12C(=O)Nc1cc(Cl)ccc12 [13a, N^1-(4-((3R,3'S,4'R)-3'-benzoyl-6-chloro-1'-methyl-2-oxospiro[indoline-3,2'-pyrrolidin]-4'-yl)phenyl)-N^8-hydroxyoctanediamide] | 52 | 65 | 126.7 to 127.9 |  | 
O=C(CCCCCCC(=O)Nc1ccc([C@@H]2[C@H]3CSCN3[C@]3(C(=O)Nc4ccc(Cl)cc43)[C@H]2C(=O)c2ccccc2)cc1)NO [7d, N^1-(4-((3R,6'S,7'R,7a'S)-6'-benzoyl-5-chloro-2-oxo-1',6',7',7a'-tetrahydro-3'H-spiro[indoline-3,5'-pyrrolo[1,2-c]thiazol]-7'-yl)phenyl)-N^8-hydroxyoctanediamide] | 49 | 67 | 154.6 to 156.2 |  | 
CN(C)c1ccc(C(=O)[C@H]2[C@H](c3ccc(NC(=O)CCCCCCC(=O)NO)cc3)[C@H]3CSCN3[C@]23C(=O)Nc2ccccc23)cc1 [7m, N^1-(4-((3R,6'S,7'R,7a'S)-6'-(4-(dimethylamino)benzoyl)-2-oxo-1',6',7',7a'-tetrahydro-3'H-spiro[indoline-3,5'-pyrrolo[1,2-c]thiazol]-7'-yl)phenyl)-N^8-hydroxyoctanediamide] | 40 | 68 | 148.7 to 150 |  | 
O=C(CCCCCCC(=O)Nc1ccc([C@@H]2[C@H]3CCCN3[C@]3(C(=O)Nc4cc(Cl)ccc43)[C@H]2C(=O)c2ccccc2)cc1)NO [7t, N^1-(4-((1'R,2'S,3R,7a'R)-2'-benzoyl-6-chloro-2-oxo-1',2',5',6',7',7a'-hexahydrospiro[indoline-3,3'-pyrrolizin]-1'-yl)phenyl)-N^8-hydroxyoctanediamide] | 61 | 61 | 143.4 to 144.5 |  | 
O=C(CCCCCCC(=O)Nc1ccc([C@@H]2[C@H]3CSCN3[C@]3(C(=O)Nc4ccccc43)[C@H]2C(=O)c2ccccc2)cc1)NO [7a, N^1-(4-((3R,6'S,7'R,7a'S)-6'-benzoyl-2-oxo-1',6',7',7a'-tetrahydro-3'H-spiro[indoline-3,5'-pyrrolo[1,2-c]thiazol]-7'-yl)phenyl)-N^8-hydroxyoctanediamide] | 39 | 69 | 144.7 to 146.1 |  | 
O=C(CCC(=O)Nc1ccc([C@@H]2[C@H]3CSCN3[C@]3(C(=O)Nc4ccccc43)[C@H]2C(=O)c2ccccc2)cc1)NO [7o, N^1-(4-((3R,6'S,7'R,7a'S)-6'-benzoyl-2-oxo-1',6',7',7a'-tetrahydro-3'H-spiro[indoline-3,5'-pyrrolo[1,2-c]thiazol]-7'-yl)phenyl)-N^4-hydroxysuccinamide] | 43 | 54 | 145.1 to 146.3 |  | 
N^1-(4-((3R,6'S,7'R,7a'S)-6-chloro-6'-(4-(dimethylamino)benzoyl)-2-oxo-1',6',7',7a'-tetrahydro-3'H-spiro[indoline-3,5'-pyrrolo[1,2-c]thiazol]-7'-yl)phenyl)-N^6-hydroxyadipamide [7y] |  |  |  | 54 | 71
O=C(CCCCCCCCC(=O)Nc1ccc([C@@H]2[C@H]3CSCN3[C@]3(C(=O)Nc4ccccc43)[C@H]2C(=O)c2ccccc2)cc1)NO [7q, N^1-(4-((3R,6'S,7'R,7a'S)-6'-benzoyl-2-oxo-1',6',7',7a'-tetrahydro-3'H-spiro[indoline-3,5'-pyrrolo[1,2-c]thiazol]-7'-yl)phenyl)-N^10-hydroxydecanediamide] | 42 | 71 | 131.9 to 132.1 |  | 
Nc1ccccc1NC(=O)CCCCCCCCC(=O)Nc1ccc([C@@H]2[C@H]3CSCN3[C@]3(C(=O)Nc4cc(Cl)ccc43)[C@H]2C(=O)c2ccccc2)cc1 [9e, N^1-(2-aminophenyl)-N^10-(4-((3R,6'S,7'R,7a'S)-6'-benzoyl-6-chloro-2-oxo-1',6',7',7a'-tetrahydro-3'H-spiro[indoline-3,5'-pyrrolo[1,2-c]thiazol]-7'-yl)phenyl)decanediamide] | 56 | 47 | 132.4 to 133.9 |  | 
O=C(CCCCCCC(=O)Nc1ccc([C@@H]2[C@H]3CSCN3[C@]3(C(=O)Nc4c(Br)cccc43)[C@H]2C(=O)c2ccccc2)cc1)NO [7i, N^1-(4-((3R,6'S,7'R,7a'S)-6'-benzoyl-7-bromo-2-oxo-1',6',7',7a'-tetrahydro-3'H-spiro[indoline-3,5'-pyrrolo[1,2-c]thiazol]-7'-yl)phenyl)-N^8-hydroxyoctanediamide] | 30 | 67 | 137.5 to 138.9 |  | 
N^1-(4-((3R,6'S,7'R,7a'S)-6-chloro-6'-(furan-2-carbonyl)-2-oxo-1',6',7',7a'-tetrahydro-3'H-spiro[indoline-3,5'-pyrrolo[1,2-c]thiazol]-7'-yl)phenyl)-N^6-hydroxyadipamide [15b] |  |  |  | 48 | 70
O=C(CCCCC(=O)Nc1ccc(C(=O)Nc2ccc([C@@H]3[C@H]4CSCN4[C@]4(C(=O)Nc5cc(Cl)ccc54)[C@H]3C(=O)c3ccccc3)cc2)cc1)NO [7v, N^1-(4-((4-((3R,6'S,7'R,7a'S)-6'-benzoyl-6-chloro-2-oxo-1',6',7',7a'-tetrahydro-3'H-spiro[indoline-3,5'-pyrrolo[1,2-c]thiazol]-7'-yl)phenyl)carbamoyl)phenyl)-N^6-hydroxyadipamide] | 58 | 53 | 175.5 to 176.6 |  | 
O=C(CCCCCCC(=O)Nc1ccc([C@@H]2[C@H]3CSCN3[C@]3(C(=O)Nc4cc(Cl)ccc43)[C@H]2C(=O)c2ccccc2)cc1)NO [compound 7f, N^1-(4-((3R,6'S,7'R,7a'S)-6'-benzoyl-6-chloro-2-oxo-1',6',7',7a'-tetrahydro-3'H-spiro[indoline-3,5'-pyrrolo[1,2-c]thiazol]-7'-yl)phenyl)-N^8-hydroxyoctanediamide] | 65 | 64 | 150.2 to 151.2 |  | 
Cc1ccc2c(c1)[C@@]1(C(=O)N2)[C@@H](C(=O)c2ccccc2)[C@H](c2ccc(NC(=O)CCCCCCC(=O)NO)cc2)[C@H]2CSCN21 [7b, N^1-(4-((3R,6'S,7'R,7a'S)-6'-benzoyl-5-methyl-2-oxo-1',6',7',7a'-tetrahydro-3'H-spiro[indoline-3,5'-pyrrolo[1,2-c]thiazol]-7'-yl)phenyl)-N^8-hydroxyoctanediamide] | 45 | 71 | 144.2 to 145.6 |  | 
